Source: US9113629B2, “4-amino-6-(4-substituted-phenyl)-picolinates and 6-amino-2-(4-substituted-phenyl)-pyrimidine-4-carboxylates and their use as herbicides” (DOW AGROSCIENCES LLC, priority 2013, dated 2015)
Read-outs that look alike come from different tables or passages of the source.

What was measured:
[1] = system: Key Broadleaf Weed and Crop Species; assay: Post-emergent Test II herbicidal activity (Table 5); type: in vivo; conditions: post-emergence, 336 h, post-emergent, 14 days after application; for pest or weed control at 70 g/ha: 70 g ai/ha; for pest or weed control at 140 g/ha: 140 g ai/ha
Procedure, shortened: (§1)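 Foliar application at 187 L/ha to greenhouse-grown seedlings (first or second true leaf); subirrigation thereafter. Visual 0–100% injury at 14 d relative to untreated plants.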

[2] = system: Key Grass and Sedge Weeds as well as Grass Crops; assay: Post-emergent Test II herbicidal activity (Table 6); type: in vivo; conditions: post-emergence, 336 h; for pest or weed control at 70 g/ha: application rate 70 g ai/ha; for pest or weed control at 140 g/ha: application rate 140 g ai/ha
Procedure, shortened: as §1

[3] = ABUTH: velvetleaf (Abutilon theophrasti), read-out: Visual Growth Reduction (%) 14 Days After Application ABUTH
[4] = AMARE: redroot pigweed (Amaranthus retroflexus), read-out: Visual Growth Reduction (%) 14 Days After Application AMARE
[5] = BRSNN: oilseed-rape, canola (Brassica napus), read-out: Visual Growth Reduction (%) 14 Days After Application BRSNN
[6] = CHEAL: lambsquarters (Chenopodium album), read-out: Visual Growth Reduction (%) 14 Days After Application CHEAL
[7] = EPHHL: wild poinsettia (Euphorbia heterophylla), read-out: Visual Growth Reduction (%) 14 Days After Application EPHHL
[8] = HELAN: sunflower (Helianthus annuus), read-out: Visual Growth Reduction (%) 14 Days After Application HELAN
[9] = VIOTR: wild pansy (Viola tricolor), read-out: Visual Growth Reduction (%) 14 Days After Application VIOTR
[10] = Triticum aestivum, TRZSS (wheat), read-out: Visual Growth Reduction (%) 14 Days After Application, TRZSS
[11] = CYPES: yellow nutsedge (Cyperus esculentus), read-out: Visual Growth Reduction (%) 14 Days After Application, CYPES
[12] = DIGSA: crabgrass (Digitaria sanguinalis), read-out: Visual Growth Reduction (%) 14 Days After Application, DIGSA
[13] = ECHCG: barnyardgrass (Echinochloa crus-galli), read-out: Visual Growth Reduction (%) 14 Days After Application, ECHCG
[14] = ORYSA: rice (Oryza sativa), read-out: Visual Growth Reduction (%) 14 Days After Application, ORYSA
[15] = SETFA: giant foxtail (Setaria faberi), read-out: Visual Growth Reduction (%) 14 Days After Application, SETFA
[16] = SORVU: grain sorghum (Sorghum vulgare), read-out: Visual Growth Reduction (%) 14 Days After Application, SORVU
[17] = ZEAMX: maize, corn (Zea mays), read-out: Visual Growth Reduction (%) 14 Days After Application, ZEAMX

COC(=O)c1nc(-c2ccc(I)c(F)c2)c(Cl)c(N)c1Cl [Compound 13, Methyl 4-amino-3,5-dichloro-6-(3-fluoro-4-iodophenyl)picolinate]
45 to 59%: pest or weed control at 70 g/ha [2, 10] | pest or weed control at 70 g/ha [2, 15]
30 to 44%: pest or weed control at 140 g/ha [1, 7]
95 to 100%: pest or weed control at 140 g/ha [1, 3] | pest or weed control at 140 g/ha [1, 4] | pest or weed control at 70 g/ha [1, 6] | pest or weed control at 140 g/ha [1, 6] | pest or weed control at 70 g/ha [1, 8] | pest or weed control at 140 g/ha [1, 8]
75 to 84%: pest or weed control at 70 g/ha [2, 11] | pest or weed control at 140 g/ha [2, 11] | pest or weed control at 140 g/ha [2, 12] | pest or weed control at 140 g/ha [2, 13] | pest or weed control at 140 g/ha [2, 15]
60 to 74%: pest or weed control at 140 g/ha [2, 10] | pest or weed control at 70 g/ha [2, 12] | pest or weed control at 70 g/ha [2, 13] | pest or weed control at 70 g/ha [2, 17] | pest or weed control at 140 g/ha [2, 17]
0 to 29%: pest or weed control at 70 g/ha [1, 7] | pest or weed control at 70 g/ha [1, 9] | pest or weed control at 140 g/ha [1, 9] | pest or weed control at 70 g/ha [2, 14] | pest or weed control at 140 g/ha [2, 14]
85 to 94%: pest or weed control at 70 g/ha [1, 3] | pest or weed control at 70 g/ha [1, 4] | pest or weed control at 70 g/ha [1, 5] | pest or weed control at 140 g/ha [1, 5] | pest or weed control at 70 g/ha [2, 16] | pest or weed control at 140 g/ha [2, 16]
